According to PubChem BioAssay (NCI):
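Each compound was tested at five concentrations against cells in 96-well plates for 48 hours. GI50 is the concentration that inhibits growth by half. TGI denotes the concentration required for complete inhibition of growth.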

Key:
Test in all cases: NCI anticancer screen, dose series, 48 h
CCRF-CEM leukemia = test system: CCRF-CEM leukemia
KM12 colon = test system: KM12 colon
MDA-MB-231 breast = test system: MDA-MB-231 breast
OVCAR-4 ovarian = test system: OVCAR-4 ovarian
PC-3 prostate = test system: PC-3 prostate
RXF 393 renal = test system: RXF 393 renal
SN12C renal = test system: SN12C renal
UO-31 renal = test system: UO-31 renal

Row | Structure (SMILES) | GI50 (CCRF-CEM leukemia) | TGI (CCRF-CEM leukemia) | GI50 (KM12 colon) | TGI (KM12 colon) | GI50 (MDA-MB-231 breast) | TGI (MDA-MB-231 breast) | GI50 (OVCAR-4 ovarian) | TGI (OVCAR-4 ovarian) | GI50 (PC-3 prostate) | TGI (PC-3 prostate) | GI50 (RXF 393 renal) | TGI (RXF 393 renal) | GI50 (SN12C renal) | TGI (SN12C renal) | GI50 (UO-31 renal) | TGI (UO-31 renal)
1 | CC([C@H]1CCC2C3CCC4C[C@@H](NC=O)CC[C@]4(C)C3CC[C@@]21C)N(C)C (stereo partly specified) | 2.31 µM | 10.9 µM | 3.14 µM | 12.6 µM | 2.38 µM | 5.89 µM | 4.72 µM | 23.1 µM | 2.47 µM | 16.4 µM | 1.77 µM | 4.15 µM | 2.88 µM | 13.7 µM | 1.49 µM | 3.12 µM
2 | CC(=O)C1CC2(c3ccc(C)cc3)C(c3ccc(C)cc3)=C(c3ccc(C)cc3)C1(c1ccc(C)cc1)S2=O (stereo unspecified) | > 100 µM | > 100 µM | > 100 µM | > 100 µM | > 100 µM | > 100 µM | 79.9 µM | > 100 µM | > 100 µM | > 100 µM | > 100 µM | > 100 µM | > 100 µM | > 100 µM | > 100 µM | > 100 µM
3 | c1ccc2[nH]c(SSc3nc4ncncc4[nH]3)nc2c1 | 1.37 µM | > 100 µM | 3.85 µM | > 100 µM | 2.9 µM | > 100 µM | 3.64 µM | > 100 µM | 5.37 µM | > 100 µM | 32.1 µM | > 100 µM | 5.38 µM | > 100 µM | 0.559 µM | > 30.9 µM
4 | C=C1C(=O)O[C@@H]2C1C[C@@H](O)/C(C)=C/C/C=C(\C)CCC[C@H](C)[C@H]2OC(C)=O (stereo partly specified) | 21.2 µM | 40.2 µM | 20.8 µM | 41.7 µM | 24.3 µM | 49.6 µM | 42.8 µM | > 100 µM | 21.4 µM | 51.3 µM | 19.3 µM | 50.2 µM | 27.2 µM | 66.3 µM | 15.6 µM | 39.4 µM
5 | CCOC(=O)Cc1csc(/N=C2\NC(=O)/C(=C3\C(=O)N(C)c4ccccc43)S2)n1 | 26.1 µM | 61.9 µM | 23.3 µM | 83.8 µM | 37.4 µM | > 100 µM | 35.2 µM | > 100 µM | 34.1 µM | > 100 µM | 73.3 µM | > 100 µM | 31 µM | > 100 µM | 35.6 µM | > 100 µM
6 | C=C(Cl)COC(=O)Nc1cccc(Cl)c1 | – | > 100 µM | – | > 100 µM | – | > 100 µM | – | > 100 µM | – | 84.6 µM | – | 77.6 µM | – | > 100 µM | – | 44.9 µM
7 | O=C(NC1CC1)c1ccc(-c2nc3ccc4[nH]ncc4c3c3c2CCCC3)cc1 | 2.06 µM | > 50 µM | 1.51 µM | 9.65 µM | 2.06 µM | 31.8 µM | 4.62 µM | > 50 µM | 2.29 µM | 29.7 µM | 0.967 µM | 4.03 µM | 2.24 µM | 20.7 µM | 1.84 µM | 13.5 µM
8 | CN(C)CCCN=C(N)N | – | > 100 µM | – | > 100 µM | – | > 100 µM | – | > 100 µM | – | > 100 µM | – | > 100 µM | – | > 100 µM | – | > 100 µM
9 | CC1(C)NCCC[C@]2(C)[C@H]3C=CC4=C5C[C@](C)(CO)CC[C@]5(C)CC[C@@]4(C)[C@]3(C)CC[C@@H]12 | 3.52 µM | 14.6 µM | 6.09 µM | 20.3 µM | 14.5 µM | 29.3 µM | 5.63 µM | 20.8 µM | 3.05 µM | 12.3 µM | 1.84 µM | 4.15 µM | 3.34 µM | 12 µM | 3.59 µM | 15.7 µM
10 | COc1cc(Cl)cc(-c2nn(C(=O)NCCN3CCN(C)CC3)cc2-c2ccncc2)c1 | 43 µM | > 100 µM | 20.5 µM | 79.6 µM | 9.7 µM | 43.5 µM | 4.35 µM | > 100 µM | 19.5 µM | > 100 µM | 2.41 µM | 18.1 µM | 10.6 µM | > 100 µM | 11.6 µM | 62 µM
11 | Nc1ccc(C(=O)c2ccc(N)c(Br)c2)cc1Br | 0.483 µM | > 100 µM | 0.409 µM | 12.8 µM | 0.772 µM | > 47.1 µM | 6.24 µM | > 100 µM | 0.392 µM | > 63.4 µM | 0.279 µM | 0.882 µM | 0.903 µM | > 100 µM | 0.734 µM | 34 µM
12 | Cn1ccc2c(NCCN)c3c(c(NCCN)c21)C(=O)c1ccccc1C3=O | 0.371 µM | – | 0.551 µM | 5.71 µM | 0.619 µM | 2.38 µM | 9.46 µM | 30.8 µM | 0.494 µM | 3.18 µM | 1.5 µM | 3.67 µM | 0.465 µM | 1.61 µM | 1.52 µM | 5.76 µM
13 | CCC1=C[C@@H]2CN(C1)Cc1c([nH]c3ccccc13)[C@@](C(=O)OC)(c1cc3c(cc1OC)N(C=O)[C@H]1[C@@](O)(C(=O)OC)[C@H](OC(C)=O)[C@]4(CC)[C@@H]5C[C@@H]5CN5CC[C@]31[C@@H]54)C2 | < 0.000625 µM | > 6.25 µM | < 0.000625 µM | – | 0.00112 µM | – | 0.054 µM | > 6.25 µM | 0.000826 µM | > 6.25 µM | 0.00155 µM | > 6.25 µM | 0.0228 µM | > 6.25 µM | 0.173 µM | > 6.25 µM
14 | COc1ccc(CNc2nc3cc(N)cc(N)c3nc2-c2ccccc2)cc1OC | 3.48 µM | 71.5 µM | 12.8 µM | 28.4 µM | 4.27 µM | 10.6 µM | 7.36 µM | 26.5 µM | 10.9 µM | 29.1 µM | 12.7 µM | > 93.5 µM | 14 µM | 27.9 µM | 15 µM | 40.7 µM
15 | N#Cc1ccccc1NC(=O)/C(=N\NC(=O)c1ccncc1)C(c1cnc2ccc([N+](=O)[O-])cc2n1)[N+](=O)[O-] (stereo unspecified) | – | > 100 µM | – | > 100 µM | – | > 100 µM | – | > 100 µM | – | > 100 µM | – | > 100 µM | – | > 100 µM | – | > 100 µM
16 | CC1(C)COCN1COC1CCCCC1 | – | > 100 µM | – | > 100 µM | – | > 100 µM | – | > 100 µM | – | > 100 µM | – | > 100 µM | – | > 100 µM | – | > 100 µM
